Data published in patent EP1909102A1, “Method for subgroup analysis in subjects having or being suspected of having inflammatory disease, use of anti-p38mapk antibodies, kits and their use” (c-a-i-r biosciences GmbH, priority 2006, dated 2008).

Key:
[1] = test system: patients with moderate to severe rheumatoid arthritis; assay: VeRA trial of p38MAPK inhibitor in rheumatoid arthritis patients; type: in vivo; settings: according to a Monte Carlo simulation of the distribution of the effects
Protocol: It has been claimed that p38MAPK inhibitors were of benefit in treating a large variety of disorders. […] In the VeRA trial, which was conducted to evaluate treatment effects in terms of characteristic manifestations of the disease such as tender joints, swollen joints, morning stiffness and disease activity in a cohort of 315 patients with moderate to severe rheumatoid arthritis, approximately 40 % of patients were responsive to treatment with the p38MAPK inhibitor VX-702, compared to a placebo effect of about 30 %, arguing for a biochemical net response rate of about 28 % according to a Monte Carlo simulation of the distribution of the effects. So far, no explanation for this evident dichotomy between responders and non-responders has been proposed yet.

[2] = test system: patients with moderate to severe rheumatoid arthritis; settings: VeRA trial, cohort of 315 patients with moderate to severe rheumatoid arthritis; placebo effect about 30 %; cited from earlier work
p38MAPKα = p38MAPKα (Homo sapiens, UniProt Q16539); settings: read-out: IC50 for p38MAPKα; disclosed in WO 2004/110990; cited from earlier work
Chain of p38MAPKα (Q16539 whole entry): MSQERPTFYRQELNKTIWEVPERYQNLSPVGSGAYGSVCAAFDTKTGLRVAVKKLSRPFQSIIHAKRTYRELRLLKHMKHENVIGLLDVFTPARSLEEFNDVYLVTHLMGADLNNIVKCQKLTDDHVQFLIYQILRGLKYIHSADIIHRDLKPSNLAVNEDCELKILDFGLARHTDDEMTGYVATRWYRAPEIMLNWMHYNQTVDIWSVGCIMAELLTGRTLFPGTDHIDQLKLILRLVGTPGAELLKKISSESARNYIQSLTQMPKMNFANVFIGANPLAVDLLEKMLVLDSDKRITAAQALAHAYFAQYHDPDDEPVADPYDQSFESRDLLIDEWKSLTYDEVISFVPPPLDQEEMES

Compound | biochemical net response rate [1] | patients responsive to treatment [2] | IC50 (p38MAPKα) [nM]
NC(=O)c1ccc(N(C(N)=O)c2c(F)cccc2F)nc1-c1ccc(F)cc1F [VX-702] | about 28% | approximately 40% | –
Fc1ccc(-c2nc3occn3c2-c2ccnc(NC3CC3)n2)cc1 [4-(4-fluorophenyl)-5-(2-[cyclopropyl-amino]-pyrimidyl-4-yl)-imidazooxazole] | – | – | 0.44
